Like-named read-outs stand apart in the source and are kept apart here.
What was measured:
[1] = test system: multidrug-resistant nasopharyngeal carcinoma cell line (KB-Vin); test: In vitro cytotoxicity assay, cancer cell growth inhibition, KB-Vin cell
Description: (§1) For evaluating the in vitro growth inhibitory concentrations ([…], μM) of the compound represented by Formula 1 of the present disclosure, human oralepithelial carcinoma cell line (KB), multidrug-resistant nasopharyngeal carcinoma cell line (KB-Vin), human lung adenocarcinoma cell line (A549), and prostate cancer cell line (DU145) were used in the following experiment. The GI50 values of Paclitaxel, an anticancer chemotherapy drug, were used as control.

[2] = test system: human oralepithelial carcinoma cell line (KB); test: In vitro cytotoxicity assay, cancer cell growth inhibition, KB cell
Description: as §1

[3] = test system: prostate cancer cell line (DU145); test: In vitro cytotoxicity assay, cancer cell growth inhibition, DU145 cell
Description: as §1

[4] = test system: human lung adenocarcinoma cell line (A549); test: In vitro cytotoxicity assay, cancer cell growth inhibition, A549 cell
Description: as §1

GSTO1 = target: T1, GSTO1 (Homo sapiens, UniProt P78417); test: Enzyme activity assay of GST omega 1 (GSTO1) with 4NPG substrate; format: biochemical; settings: 2 nM GSTO1, 0.5 mM 4NPG, 30 min 25° C. pre-reaction, O.D.305
T1 sequence (P78417 1-241): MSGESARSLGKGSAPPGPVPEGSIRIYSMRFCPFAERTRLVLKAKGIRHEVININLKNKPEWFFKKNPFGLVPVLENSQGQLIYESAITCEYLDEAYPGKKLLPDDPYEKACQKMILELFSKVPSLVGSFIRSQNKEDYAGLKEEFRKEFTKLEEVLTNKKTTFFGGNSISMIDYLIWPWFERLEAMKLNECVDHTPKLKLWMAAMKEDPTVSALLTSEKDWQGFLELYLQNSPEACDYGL
Experimental: First, 100 μl mixture having 2 nM GSTO1, 100 mM Tris (pH 8.0), 1.5 mM EDTA, and 10 mM 2-mercaptoethanol were added into each well of an UV-penetrable 96-well culture plate. Besides, 100 μl buffer having 100 mM Tris (pH 8.0), 1.5 mM EDTA, and 10 mM 2-mercaptoethanol were used as blank control.
Then, 4NPG were added to each of the aforementioned mixture to a final concentration of 0.5 mM.

[5] = Homo sapiens, DU-145, read-out: In vitro cytotoxicity assay: GI50 (μM) DU145 cell
[6] = Homo sapiens, A549, read-out: In vitro cytotoxicity assay: GI50 (μM) A549 cell
[7] = read-out: In vitro cytotoxicity assay: GI50 (μM) DU145 cell, DU145 cell
[8] = read-out: In vitro cytotoxicity assay: GI50 (μM) A549 cell, A549 cell

SMILES | In vitro cytotoxicity assay: GI50 (μM) KB-Vin cell ([1]; KB-Vin cell) [µM] | In vitro cytotoxicity assay: GI50 (μM) KB cell ([2]; KB cell) [µM] | In vitro cytotoxicity assay: GI50 (μM) KB-Vin cell [1] [µM] | In vitro cytotoxicity assay: GI50 (μM) KB cell [2] [µM] | GI50 [3] [µM] | GI50 [4] [µM] | also measured
O=C1C=CC(O)(c2cc(=O)c3c(ccc4ccccc43)o2)C=C1 [Compound main structure] | 0.674 | 0.865 |  |  |  |  | GI50 [3, 5]: 0.799 µM; GI50 [4, 6]: 0.763 µM
CC(=O)O[C@H]1C(=O)[C@@]2(C)[C@H]([C@H](OC(=O)c3ccccc3)[C@]3(O)C[C@H](OC(=O)[C@H](O)[C@@H](NC(=O)c4ccccc4)c4ccccc4)C(C)=C1C3(C)C)[C@]1(OC(C)=O)CO[C@@H]1C[C@@H]2O [Paclitaxel, reference compound] |  |  |  |  |  |  | GI50 KB-Vin cell (control) ([1]; KB-Vin cell): >1000 nM; GI50 KB cell (control) ([2]; KB cell): 4.64 nM; GI50 ([3]; Homo sapiens, DU-145, read-out: GI50 DU145 cell (control)): 0.003 µM; GI50 ([4]; Homo sapiens, A549, read-out: GI50 A549 cell (control)): 0.00356 µM
O=C1C=CC(O)(c2cc(=O)c3c(O)cc(O)cc3o2)C=C1 [compound A] |  |  |  |  |  |  | inhibitory effect against GSTO1 enzyme activity (competition with 4NPG, FIG. 1) (GSTO1): slight
COc1ccc2c(ccc3oc(C4(O)C=CC(=O)C=C4)cc(=O)c32)c1 [compound B] |  |  |  |  |  |  | inhibitory effect against GSTO1 enzyme activity (competition with 4NPG, FIG. 1) (GSTO1): slight
O=C1C=CC(O)(c2cc(=O)c3c(ccc4cc(OC(=O)N5CCOCC5)ccc43)o2)C=C1 [side chain No. 6] |  |  | 0.64 | 0.607 | 0.617 | 0.603 | 
O=C1C=CC(O)(c2cc(=O)c3c(ccc4cc(OC(=O)N5CCCCC5)ccc43)o2)C=C1 [side chain No. 7] |  |  | 0.619 | 0.615 | 0.522 | 0.536 | 
COc1ccc2c(ccc3oc(C4(O)C=CC(=O)C=C4)cc(=O)c32)c1 [side chain No. 8] | 0.692 | 0.871 |  |  |  |  | GI50 [3, 7]: 0.707 µM; GI50 [4, 8]: 0.811 µM
COCOc1ccc2c(ccc3oc(C4(O)C=CC(=O)C=C4)cc(=O)c32)c1 [side chain No. 10] | 0.766 | 0.786 |  |  |  |  | GI50 [3, 7]: 0.865 µM; GI50 [4, 8]: 0.819 µM
CC(C)CCOc1ccc2c(ccc3oc(C4(O)C=CC(=O)C=C4)cc(=O)c32)c1 [side chain No. 11] | 0.269 | 0.2 |  |  |  |  | GI50 [3, 5]: 0.231 µM; GI50 [4, 6]: 0.382 µM
CC(C)CCCC(C)CCOc1ccc2c(ccc3oc(C4(O)C=CC(=O)C=C4)cc(=O)c32)c1 (centres unmarked) [side chain No. 12] | 0.335 | 0.067 |  |  |  |  | GI50 [3, 5]: 0.065 µM; GI50 [4, 6]: 0.233 µM
CCC(C)CCCC(C)CCOc1ccc2c(ccc3oc(C4(O)C=CC(=O)C=C4)cc(=O)c32)c1 (centres unmarked) [side chain No. 13] |  |  | 1.883 | 1.115 | 1.26 | 4.27 | 
CN(C)CCOc1ccc2c(ccc3oc(C4(O)C=CC(=O)C=C4)cc(=O)c32)c1 [side chain No. 14] | 0.841 | 0.683 |  |  |  |  | GI50 [3, 7]: 0.808 µM; GI50 [4, 8]: 0.754 µM
CCN(CC)CCOc1ccc2c(ccc3oc(C4(O)C=CC(=O)C=C4)cc(=O)c32)c1 [side chain No. 15] |  |  | 1.325 | 0.644 | 0.685 | 0.551 | 
CC(C)N(CCOc1ccc2c(ccc3oc(C4(O)C=CC(=O)C=C4)cc(=O)c32)c1)C(C)C [side chain No. 16] |  |  | 0.682 | 0.55 | 0.62 | 0.584 | 
O=C1C=CC(O)(c2cc(=O)c3c(ccc4cc(OCCN5CCCCC5)ccc43)o2)C=C1 [side chain No. 17] |  |  | 0.675 | 0.499 | 0.541 | 0.483 | 
O=C1C=CC(O)(c2cc(=O)c3c(ccc4cc(OCCN5CCCC5)ccc43)o2)C=C1 [side chain No. 18] |  |  | 1.108 | 0.552 | 0.693 | 0.628 | 
O=C1C=CC(O)(c2cc(=O)c3c(ccc4cc(O)ccc43)o2)C=C1 [side chain No. 19] | 0.738 | 0.944 |  |  |  |  | GI50 [3, 7]: 0.709 µM; GI50 [4, 8]: 0.806 µM

Source: patent publication US8969406B2, “Use of compound for inhibiting glutathione s-transferase omega 1 activity and method for synthesizing the same” (China Medical University, priority 2013, dated 2015)
